Results taken from patent publication US6534090B2, “Oral osmotic controlled drug delivery system for a sparingly soluble drug” (Sun Pharmaceutical Advanced Research Centre Limited, priority 2001, dated 2003).

Legend:
[1] = Comparative experiments: anhydrous carbamazepine suspended in water or aqueous solution of a crystal habit modifier; type: physicochemical
[2] = cited from earlier work
[3] = below 4 μg/ml ineffective, above 12 μg/ml side-effects likely; cited from earlier work

length of crystals formed from anhydrous carbamazepine ([1]; in water, absence of a crystal habit modifier, long discrete needles that cluster): ≤ 500 μm
SMILES: NC(=O)N1c2ccccc2C=Cc2ccccc21 [carbamazepine, 5H-dibenz-[b,f]azepine-5-carboxamide]
conversion of anhydrous carbamazepine microcrystals ([1]; in the presence of hydroxypropyl methylcellulose): did not convert to the dihydrate crystals
solubility in water [2]: sparingly soluble in water
therapeutic range (blood levels) [3]: 4 to 12 µg/mL
